Assay results published in patent publication US6372791B1, “Method of promoting skin cell metabolism” (Johnson & Johnson Consumer Companies, Inc., priority 2000, dated 2002).

Tested on: primary normal human dermal fibroblasts (NHDF)
Test: Energy production (metabolic activity) by alamarBlue REDOX indicator fluorescence
Type: cell-based
Conditions: NHDF in DMEM prepared with Evian mineral water; 10 mM of each agent; 3-hour incubation, then alamarBlue 1 hour; fluorescence ex 530 nm/em 590 nm; n=8
Description: The effects of L-carnitine and sodium pyruvate, in mineral water, on energy production were evaluated in primary normal human dermal fibroblasts (adult). Energy production in the cell is assessed using the REDOX sensitive indicator alamarBlue™ (Alamar Biosciences, Sacramento, Calif.). The native, oxidized form of alamarBlue™ is taken up readily by cells and reduced intracellularly by the mitochondrial electron transport chain, resulting in a shift in its absorbance and fluorescence. Normal human dermal fibroblasts (NHDF), obtained from Clonetics (Biowhittaker Inc., Walkersville, Md.), were cultured in Clonetics FGM2 medium and grown to confluence in 96-well plates (Costar, Cambridge, Mass.). Culture medium was then replaced with DMEM (Life Technologies, Rockville, Md.) prepared with Evian® mineral water. After 72 hours cells were treated with 10 mM L-carnitine (Biosint USA, Larchmont, N.Y.), 10 mM sodium pyruvate (American International Chemical Inc., Natick, Mass.) or 10 mM L-carnitine in combination with 10 mM sodium pyruvate. At the end of a 3-hour incubation period, alamarBlue™ was added to each well and the plates returned to the incubator. After 1 hour the fluorescence was measured using a CytoFluor® Fluorescence Plate Reader (PerSeptive Biosystems, Framingham, Mass.) set with the following filter-combination: excitation at 530 nm and emission at 590 nm.

Compound	increase in metabolic activity [%]
CC(=O)C(=O)[O-].[Na+] [sodium pyruvate]	2.16
C[N+](C)(C)C[C@H](O)CC(=O)[O-] [carntine, L-carnitine]	6.05
